Patent publication US20180360855A1, “THE FORMULATION COMPRISING PHOSPHOMYCINE AND ASCORBIC ACID FOR THE TREATMENT OF BACTERIAL URINARY SYSTEM INFECTIONS” (priority 2015, published 2018)

What was measured:
[1] = pH of solutions of Phosphomycine Trometamol with and without ascorbic acid in water; type: physicochemical
[2] = test system: susceptible bacteria; details: cited from earlier work

C[C@@H]1O[C@@H]1P(=O)(O)O [Phosphomycine Trometamol, Phosphomycine trometamol]
pH in 50 ml water ([1]; 5.631 g Phosphomycine Trometamol (+ 1.0 g ascorbic acid) in 50 ml water): 3.608 | pH in 100 ml water ([1]; 5.631 g Phosphomycine Trometamol (+ 1.0 g ascorbic acid) in 100 ml water): 3.743 | pH in 150 ml water ([1]; 5.631 g Phosphomycine Trometamol (+ 1.0 g ascorbic acid) in 150 ml water): 3.824

C[C@@H]1O[C@@H]1P(=O)(O)O [Phosphomycine]
efficiency in vitro depending on environmental conditions ([2]; in the presence of Alkali pH, glycose, phosphate, and sodium chloride): reduced | time in which efficiency on susceptible bacteria is shown ([2]; in vitro studies): 30 min
